# Activity calls are given as the source filed them.
# Assays:
# [1] = molecular target: Dual specificity tyrosine-phosphorylation-regulated kinase 1A (Rattus norvegicus, UniProt Q63470); format: biochemical, Homo sapiens
# [2] = Trypanosoma cruzi growth suppression in host cells – NIH3T3 host cells, beta-gal luminescence, confirmation (AID 2044); format: functional, cell-based;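 further: intracellular parasites grown in NIH/3T3 mouse fibroblasts as host cells; luminescent beta-galactosidase reporter signal from transgenic T. cruzi replicating inside host cells; inhibitors lower the luminescence signal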
# [3] = NIH3T3 cell viability loss – ATP luminescence, mouse fibroblasts, counter-screen, dose response (AID 2010); format: functional, cell-based;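 further: cells exposed to compound for about 90 hours before reading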
# [4] = molecular target: T1, E3 ubiquitin-protein ligase XIAP (Homo sapiens, UniProt P98170); assay: small molecules displacing peptide from XIAP – biochemical, IAP family, fluorescence polarization (AID 1018); format: functional
# [5] = molecular target: T1, E3 ubiquitin-protein ligase XIAP; assay: Counter Screen using XIAP-Bir3 for Chemical Antagonists of Bir1/2 domains of IAP-family anti-apoptotic proteins. [Related pubchem assays (depositor defined):AID1018, AID1449, AID1514, AID1638, AID1749, AID1750, AID488957, AID488963]
# [6] = Luminescence Cell-Based Dose Retest to Confirm Inhibitors of Cancer Stem Cells. [Related pubchem assays (depositor defined):AID2717, AID2721]; format: functional; conditions: Homo sapiens
# [7] = molecular target: Neurotensin receptor type 1 (Homo sapiens, UniProt P30989); format: functional;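 further: Image-based confirmatory dose-response assay measuring agonist activity at NTR1; NTR1-expressing U2OS osteosarcoma cells imaged for beta-arrestin GFP spot formation; agonist potency where compounds increase beta-arrestin recruitment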
# [8] = molecular target: T2, Histone-lysine N-methyltransferase NSD2 (Homo sapiens, UniProt O96028); format: biochemical
# T2 sequence (O96028 whole entry): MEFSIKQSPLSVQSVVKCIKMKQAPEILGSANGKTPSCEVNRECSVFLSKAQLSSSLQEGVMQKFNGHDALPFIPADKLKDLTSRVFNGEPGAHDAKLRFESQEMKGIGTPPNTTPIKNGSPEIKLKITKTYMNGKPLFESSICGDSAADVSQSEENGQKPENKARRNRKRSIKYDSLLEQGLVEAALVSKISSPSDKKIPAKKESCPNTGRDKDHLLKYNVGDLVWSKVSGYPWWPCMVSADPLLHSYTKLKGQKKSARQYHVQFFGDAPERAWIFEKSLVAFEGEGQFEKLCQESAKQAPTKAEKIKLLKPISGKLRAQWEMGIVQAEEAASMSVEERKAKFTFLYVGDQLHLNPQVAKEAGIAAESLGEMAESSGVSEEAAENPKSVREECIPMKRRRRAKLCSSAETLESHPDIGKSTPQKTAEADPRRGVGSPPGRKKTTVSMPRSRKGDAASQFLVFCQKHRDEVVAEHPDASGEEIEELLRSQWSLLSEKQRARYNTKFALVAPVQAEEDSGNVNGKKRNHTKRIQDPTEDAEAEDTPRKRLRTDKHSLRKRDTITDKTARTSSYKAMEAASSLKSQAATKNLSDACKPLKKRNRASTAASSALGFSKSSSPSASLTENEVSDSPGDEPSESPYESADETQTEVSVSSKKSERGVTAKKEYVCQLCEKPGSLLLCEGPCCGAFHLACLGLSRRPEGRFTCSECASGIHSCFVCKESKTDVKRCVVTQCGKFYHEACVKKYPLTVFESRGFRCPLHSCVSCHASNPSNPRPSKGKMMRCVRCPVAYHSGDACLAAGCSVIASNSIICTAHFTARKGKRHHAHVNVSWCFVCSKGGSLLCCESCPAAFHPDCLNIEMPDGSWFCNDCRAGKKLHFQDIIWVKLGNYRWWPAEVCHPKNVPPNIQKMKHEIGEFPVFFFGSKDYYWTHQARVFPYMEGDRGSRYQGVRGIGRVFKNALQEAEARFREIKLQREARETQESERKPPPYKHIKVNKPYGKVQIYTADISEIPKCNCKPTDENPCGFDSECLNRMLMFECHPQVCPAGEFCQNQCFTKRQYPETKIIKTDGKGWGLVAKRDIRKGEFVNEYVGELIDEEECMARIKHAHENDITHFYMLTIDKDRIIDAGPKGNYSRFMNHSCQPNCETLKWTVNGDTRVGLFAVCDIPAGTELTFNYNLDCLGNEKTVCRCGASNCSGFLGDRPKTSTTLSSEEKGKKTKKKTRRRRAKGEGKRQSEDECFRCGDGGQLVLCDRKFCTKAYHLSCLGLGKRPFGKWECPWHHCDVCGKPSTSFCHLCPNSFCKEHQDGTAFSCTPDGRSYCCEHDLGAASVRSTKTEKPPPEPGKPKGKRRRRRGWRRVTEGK
# Large T antigen = Large T antigen (Simian virus 40, UniProt P03070); format: functional, Betapolyomavirus macacae;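 further: Confirmatory-stage PubChem screen for compounds that inhibit SV40 T antigen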
# [9] = molecular target: T3, Nuclear receptor subfamily 0 group B member 1 (Homo sapiens, UniProt P51843); assay: Luminescence-based cell-based high throughput dose response assay for inhibitors of the orphan nuclear receptor subfamily 0, group B, member 1 (DAX1; NR0B1). [Related pubchem assays (depositor defined):AID504766, AID504790]; format: functional
# T3 sequence (P51843 whole entry): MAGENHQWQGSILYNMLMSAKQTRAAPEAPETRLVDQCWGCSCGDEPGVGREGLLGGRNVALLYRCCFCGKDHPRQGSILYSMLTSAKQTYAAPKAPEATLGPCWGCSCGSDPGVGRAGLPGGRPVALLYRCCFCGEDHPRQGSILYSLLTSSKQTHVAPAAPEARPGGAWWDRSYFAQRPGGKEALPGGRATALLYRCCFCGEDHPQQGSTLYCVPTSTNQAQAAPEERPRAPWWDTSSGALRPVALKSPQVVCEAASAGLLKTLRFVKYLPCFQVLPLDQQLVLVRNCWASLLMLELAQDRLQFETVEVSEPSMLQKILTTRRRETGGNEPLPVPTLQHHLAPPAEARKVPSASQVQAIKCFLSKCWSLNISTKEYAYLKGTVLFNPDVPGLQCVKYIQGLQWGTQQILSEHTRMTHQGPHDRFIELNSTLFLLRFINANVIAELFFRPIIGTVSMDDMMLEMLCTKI
# HEK293 = assay: cells; format: functional, cell-based; conditions: Homo sapiens
# Cytochrome P450 1A2 = molecular target: T4, Cytochrome P450 1A2 (Homo sapiens, UniProt P05177);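 further: PubChem cytochrome P450 panel assay, CYP1A2 panel member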
# T4 sequence (P05177 whole entry): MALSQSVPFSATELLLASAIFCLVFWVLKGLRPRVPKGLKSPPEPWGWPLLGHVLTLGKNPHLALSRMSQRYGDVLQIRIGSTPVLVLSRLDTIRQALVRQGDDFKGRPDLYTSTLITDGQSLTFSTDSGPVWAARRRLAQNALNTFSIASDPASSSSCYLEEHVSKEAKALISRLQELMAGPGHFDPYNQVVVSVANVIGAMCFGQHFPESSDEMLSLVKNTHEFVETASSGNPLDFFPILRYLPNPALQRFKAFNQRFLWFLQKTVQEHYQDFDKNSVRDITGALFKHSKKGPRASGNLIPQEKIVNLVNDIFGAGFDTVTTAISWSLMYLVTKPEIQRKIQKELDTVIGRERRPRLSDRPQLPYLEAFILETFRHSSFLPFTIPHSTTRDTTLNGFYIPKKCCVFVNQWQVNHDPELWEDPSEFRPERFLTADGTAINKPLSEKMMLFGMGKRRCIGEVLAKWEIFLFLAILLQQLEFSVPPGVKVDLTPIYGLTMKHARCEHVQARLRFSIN
# Cytochrome P450 3A4 = Cytochrome P450 3A4 (Homo sapiens, UniProt P08684);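 further: CYP3A4 tested as one member of a cytochrome P450 panel screen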
# Cytochrome P450 2C9 = Cytochrome P450 2C9 (Homo sapiens, UniProt P11712)
# Cytochrome P450 2C19 = Cytochrome P450 2C19 (Homo sapiens, UniProt P33261); assay: Cytochrome panel assay with activity outcomes. Panel member name: p450-cyp2c19 Compounds with AC50 equal or less than 10 uM are considered active; format: functional; conditions: read-out: AC50
# [10] = molecular target: G-protein coupled receptor 35 (Homo sapiens, UniProt Q9HC97); assay: inhibition of zaprinast-stimulated GPR35 beta-arrestin translocation – imaging, U2OS, beta-arrestin-GFP, zaprinast agonist, primary screen (AID 2058); format: functional;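 further: antagonist potency meaning inhibition of agonist-induced arrestin redistribution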
# [11] = molecular target: Intestinal-type alkaline phosphatase (Homo sapiens, UniProt P09923); assay: Dose Response confirmation of uHTS hits from a small molecule inhibitors of human intestinal alkaline phosphatase via a luminescent assay. [Related pubchem assays (depositor defined):AID2544, AID2574]; format: functional
# Beta-galactosidase = Beta-galactosidase (Escherichia coli, UniProt Q8VNN2); assay: detection-enzyme interference by beta-gal modulators – biochemical, E. coli enzyme, set 3, artefact control for CCR6 antagonist project, dose response (AID 504712); format: functional
# [12] = molecular target: T5, C-C chemokine receptor type 6 (Homo sapiens, UniProt P51684); assay: antagonism of CCR6 beta-arrestin recruitment – cell-based, luminescent beta-arrestin readout, dose response (AID 504728); format: functional
# T5 sequence (P51684 whole entry): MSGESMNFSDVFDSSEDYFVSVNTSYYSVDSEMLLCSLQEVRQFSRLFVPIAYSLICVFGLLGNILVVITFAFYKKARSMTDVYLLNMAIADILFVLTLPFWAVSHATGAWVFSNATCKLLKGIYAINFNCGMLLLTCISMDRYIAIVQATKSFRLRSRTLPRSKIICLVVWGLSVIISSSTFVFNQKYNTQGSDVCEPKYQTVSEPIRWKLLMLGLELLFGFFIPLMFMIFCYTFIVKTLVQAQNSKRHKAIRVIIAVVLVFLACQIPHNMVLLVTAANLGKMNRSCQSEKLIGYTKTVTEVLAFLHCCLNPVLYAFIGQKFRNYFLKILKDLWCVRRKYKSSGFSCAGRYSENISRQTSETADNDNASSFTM
# [13] = molecular target: T6, Ubiquitin-conjugating enzyme E2 N (Homo sapiens, UniProt P61088); format: functional;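 further: Dose-response confirmation in a TR-FRET assay detecting UBC13-driven polyubiquitin chain formation, inhibition measured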
# T6 sequence (P61088 whole entry): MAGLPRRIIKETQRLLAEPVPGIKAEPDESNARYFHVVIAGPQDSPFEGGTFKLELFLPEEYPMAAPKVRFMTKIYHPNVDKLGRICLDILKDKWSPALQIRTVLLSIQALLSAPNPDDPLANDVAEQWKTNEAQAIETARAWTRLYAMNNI
# INS1 = assay: INS-1E survival protection against cytokine death – cell-based, luminescence, retest, dose response (AID 449756); format: functional; conditions: Rattus norvegicus;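 further: cell death triggered by IL-1 beta plus TNF-alpha plus IFN-gamma mixture; protective hits raise ATP signal compared with cytokine alone wells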
# [14] = THP-1 cell cytotoxicity, dose response, cytotoxicity control for non-replicating M. tuberculosis project (AID 489025); format: functional
# cells = format: functional
# T1 sequence (P98170 whole entry): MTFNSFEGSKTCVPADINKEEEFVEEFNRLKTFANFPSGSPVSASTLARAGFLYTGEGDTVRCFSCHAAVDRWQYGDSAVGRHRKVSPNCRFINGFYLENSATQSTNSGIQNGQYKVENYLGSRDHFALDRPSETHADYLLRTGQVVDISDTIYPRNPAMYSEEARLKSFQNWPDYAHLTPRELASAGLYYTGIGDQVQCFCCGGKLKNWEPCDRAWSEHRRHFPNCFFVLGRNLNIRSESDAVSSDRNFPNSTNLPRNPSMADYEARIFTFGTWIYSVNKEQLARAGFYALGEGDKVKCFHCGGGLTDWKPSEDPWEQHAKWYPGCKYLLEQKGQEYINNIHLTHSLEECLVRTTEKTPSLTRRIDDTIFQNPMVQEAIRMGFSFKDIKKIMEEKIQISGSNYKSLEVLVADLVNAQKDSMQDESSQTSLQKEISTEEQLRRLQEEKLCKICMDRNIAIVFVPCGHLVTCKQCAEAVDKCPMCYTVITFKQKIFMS
# Cytochrome P450 3A4, sequence (P08684 whole entry): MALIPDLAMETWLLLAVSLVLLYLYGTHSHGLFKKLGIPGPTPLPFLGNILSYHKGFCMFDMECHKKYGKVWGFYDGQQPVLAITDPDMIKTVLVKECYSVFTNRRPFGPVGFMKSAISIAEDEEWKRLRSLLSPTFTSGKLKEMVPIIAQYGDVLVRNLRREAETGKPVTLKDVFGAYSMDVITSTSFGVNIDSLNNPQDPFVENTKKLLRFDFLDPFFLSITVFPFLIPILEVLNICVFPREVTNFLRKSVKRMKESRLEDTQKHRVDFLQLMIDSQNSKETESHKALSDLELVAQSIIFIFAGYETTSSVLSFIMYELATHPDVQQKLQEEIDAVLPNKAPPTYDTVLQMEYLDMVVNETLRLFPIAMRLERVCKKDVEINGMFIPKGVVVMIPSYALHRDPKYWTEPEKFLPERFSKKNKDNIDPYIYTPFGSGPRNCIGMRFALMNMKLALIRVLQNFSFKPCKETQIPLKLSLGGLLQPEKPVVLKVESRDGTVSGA
# Intestinal-type alkaline phosphatase, sequence (P09923 whole entry): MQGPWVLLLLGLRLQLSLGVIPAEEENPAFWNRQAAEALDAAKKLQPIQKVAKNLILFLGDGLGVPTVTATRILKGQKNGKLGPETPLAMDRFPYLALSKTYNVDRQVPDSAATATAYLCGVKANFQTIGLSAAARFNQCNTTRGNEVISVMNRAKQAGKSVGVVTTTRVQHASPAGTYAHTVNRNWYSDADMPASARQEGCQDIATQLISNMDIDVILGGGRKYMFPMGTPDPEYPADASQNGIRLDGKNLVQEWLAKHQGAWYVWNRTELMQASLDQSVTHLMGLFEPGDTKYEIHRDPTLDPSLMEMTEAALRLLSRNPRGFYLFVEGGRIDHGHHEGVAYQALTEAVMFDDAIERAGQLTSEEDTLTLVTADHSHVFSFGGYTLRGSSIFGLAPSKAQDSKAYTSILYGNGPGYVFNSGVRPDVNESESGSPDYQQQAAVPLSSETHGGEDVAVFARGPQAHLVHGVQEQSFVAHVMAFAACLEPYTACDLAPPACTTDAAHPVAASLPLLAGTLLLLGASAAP
# Cytochrome P450 2C19, sequence (P33261 whole entry): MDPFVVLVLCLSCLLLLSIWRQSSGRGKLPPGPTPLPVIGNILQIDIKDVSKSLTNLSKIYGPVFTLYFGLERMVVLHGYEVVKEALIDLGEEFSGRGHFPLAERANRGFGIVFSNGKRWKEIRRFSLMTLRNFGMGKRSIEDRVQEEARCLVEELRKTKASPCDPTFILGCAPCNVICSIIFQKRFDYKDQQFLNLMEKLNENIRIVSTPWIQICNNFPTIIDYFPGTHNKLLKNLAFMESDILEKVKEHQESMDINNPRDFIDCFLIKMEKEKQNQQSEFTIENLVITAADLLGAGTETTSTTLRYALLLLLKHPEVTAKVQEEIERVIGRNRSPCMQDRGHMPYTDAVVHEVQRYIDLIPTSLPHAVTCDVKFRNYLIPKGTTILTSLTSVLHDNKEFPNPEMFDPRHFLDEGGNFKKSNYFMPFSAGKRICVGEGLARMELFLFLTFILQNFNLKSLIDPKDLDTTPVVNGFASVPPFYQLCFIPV
# Beta-galactosidase, sequence (Q8VNN2 whole entry): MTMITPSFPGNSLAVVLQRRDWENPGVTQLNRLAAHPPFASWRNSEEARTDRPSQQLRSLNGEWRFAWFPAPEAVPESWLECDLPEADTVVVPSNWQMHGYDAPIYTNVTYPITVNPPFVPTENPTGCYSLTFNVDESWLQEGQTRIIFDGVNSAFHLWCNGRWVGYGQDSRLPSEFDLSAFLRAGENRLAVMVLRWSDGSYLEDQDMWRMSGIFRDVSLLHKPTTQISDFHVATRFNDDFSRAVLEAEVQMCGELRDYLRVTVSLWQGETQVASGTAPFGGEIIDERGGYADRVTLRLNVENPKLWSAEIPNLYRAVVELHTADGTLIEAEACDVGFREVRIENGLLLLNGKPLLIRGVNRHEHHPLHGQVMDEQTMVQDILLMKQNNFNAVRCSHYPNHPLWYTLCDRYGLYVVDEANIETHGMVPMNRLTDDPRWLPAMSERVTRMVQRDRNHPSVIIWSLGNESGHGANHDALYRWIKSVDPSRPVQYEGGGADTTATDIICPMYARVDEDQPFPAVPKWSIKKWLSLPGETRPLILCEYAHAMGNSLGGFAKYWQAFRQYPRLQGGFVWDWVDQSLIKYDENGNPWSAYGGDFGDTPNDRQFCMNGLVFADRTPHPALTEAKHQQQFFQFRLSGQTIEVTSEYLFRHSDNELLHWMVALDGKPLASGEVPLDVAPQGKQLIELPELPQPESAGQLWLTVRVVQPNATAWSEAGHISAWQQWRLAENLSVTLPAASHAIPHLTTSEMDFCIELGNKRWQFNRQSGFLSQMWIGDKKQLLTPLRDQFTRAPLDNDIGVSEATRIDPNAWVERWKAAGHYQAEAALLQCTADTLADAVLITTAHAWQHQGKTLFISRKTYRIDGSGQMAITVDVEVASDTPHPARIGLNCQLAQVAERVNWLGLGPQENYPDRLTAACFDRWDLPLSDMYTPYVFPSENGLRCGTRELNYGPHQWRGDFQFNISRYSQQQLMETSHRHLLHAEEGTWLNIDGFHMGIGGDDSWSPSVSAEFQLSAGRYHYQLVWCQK
# Cytochrome P450 2C9, sequence (P11712 whole entry): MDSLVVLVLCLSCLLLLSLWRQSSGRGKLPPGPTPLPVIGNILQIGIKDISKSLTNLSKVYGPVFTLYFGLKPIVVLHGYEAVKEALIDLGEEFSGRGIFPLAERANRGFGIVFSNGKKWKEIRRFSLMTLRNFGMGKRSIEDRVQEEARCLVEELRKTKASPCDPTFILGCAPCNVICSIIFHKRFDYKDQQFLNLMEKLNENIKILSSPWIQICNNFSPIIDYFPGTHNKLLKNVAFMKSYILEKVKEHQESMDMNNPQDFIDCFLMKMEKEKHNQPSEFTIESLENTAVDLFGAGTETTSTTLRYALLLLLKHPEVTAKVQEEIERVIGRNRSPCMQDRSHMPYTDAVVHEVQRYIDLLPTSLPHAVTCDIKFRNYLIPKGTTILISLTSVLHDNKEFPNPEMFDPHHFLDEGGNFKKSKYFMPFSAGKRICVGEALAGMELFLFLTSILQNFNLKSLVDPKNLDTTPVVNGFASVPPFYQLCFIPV
# Neurotensin receptor type 1, sequence (P30989 whole entry): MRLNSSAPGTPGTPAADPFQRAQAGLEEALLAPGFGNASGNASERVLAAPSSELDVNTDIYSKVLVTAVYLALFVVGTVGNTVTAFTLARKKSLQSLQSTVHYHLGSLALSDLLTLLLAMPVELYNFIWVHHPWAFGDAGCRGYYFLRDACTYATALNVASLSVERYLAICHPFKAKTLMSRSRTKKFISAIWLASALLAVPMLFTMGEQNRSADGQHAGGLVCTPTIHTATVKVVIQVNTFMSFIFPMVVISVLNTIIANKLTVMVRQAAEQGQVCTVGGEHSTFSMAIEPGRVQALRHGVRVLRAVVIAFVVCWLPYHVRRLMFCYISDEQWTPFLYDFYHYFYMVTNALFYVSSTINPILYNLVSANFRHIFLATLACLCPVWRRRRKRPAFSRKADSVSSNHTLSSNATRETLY
# G-protein coupled receptor 35, sequence (Q9HC97 whole entry): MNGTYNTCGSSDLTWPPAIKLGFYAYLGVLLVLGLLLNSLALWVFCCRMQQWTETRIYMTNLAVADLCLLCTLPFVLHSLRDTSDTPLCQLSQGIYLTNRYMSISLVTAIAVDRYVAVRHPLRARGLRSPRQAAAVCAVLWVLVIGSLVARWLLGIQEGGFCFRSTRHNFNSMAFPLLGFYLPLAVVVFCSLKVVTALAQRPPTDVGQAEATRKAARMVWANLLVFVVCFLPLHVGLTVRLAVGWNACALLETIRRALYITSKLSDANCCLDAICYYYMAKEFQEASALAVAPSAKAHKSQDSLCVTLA
# Large T antigen, sequence (P03070 whole entry): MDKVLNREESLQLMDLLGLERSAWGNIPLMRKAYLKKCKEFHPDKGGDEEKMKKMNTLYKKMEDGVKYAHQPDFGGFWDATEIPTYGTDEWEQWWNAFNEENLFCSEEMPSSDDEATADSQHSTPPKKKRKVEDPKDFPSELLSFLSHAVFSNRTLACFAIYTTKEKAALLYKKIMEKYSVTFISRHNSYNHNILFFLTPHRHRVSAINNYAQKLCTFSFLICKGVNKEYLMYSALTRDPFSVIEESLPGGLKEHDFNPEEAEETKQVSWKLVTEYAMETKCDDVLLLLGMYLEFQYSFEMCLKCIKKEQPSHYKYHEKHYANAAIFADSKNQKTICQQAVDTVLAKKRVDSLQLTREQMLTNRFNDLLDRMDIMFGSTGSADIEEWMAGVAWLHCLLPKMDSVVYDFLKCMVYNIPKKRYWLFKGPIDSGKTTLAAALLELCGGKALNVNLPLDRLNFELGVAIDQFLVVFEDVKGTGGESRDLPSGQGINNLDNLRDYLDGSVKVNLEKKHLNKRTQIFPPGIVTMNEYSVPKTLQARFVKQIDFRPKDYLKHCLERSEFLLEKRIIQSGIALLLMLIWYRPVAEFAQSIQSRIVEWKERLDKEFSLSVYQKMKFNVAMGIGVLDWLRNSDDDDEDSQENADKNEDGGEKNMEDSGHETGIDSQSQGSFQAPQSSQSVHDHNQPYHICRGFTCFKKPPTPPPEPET
compound,measurement,setting,value
C=C(C)[C@@H](O)COc1c2ccoc2cc2oc(=O)ccc12,AC50,[1],9.08 µM (active)
S=C(Nc1ccc(Br)cc1)N1CCn2cccc2C1c1cccnc1 (stereo unspecified),EC50,[2],0.605 µM (active)
same,EC50,[3],> 60 µM (not active)
same,IC50,[4],> 100 µM (not active)
same,IC50,[5],> 100 µM (inactive)
COc1cc(/C=C2\C(=O)ON=C2c2ccc(Cl)cc2)ccc1O,AC50,[6],1.76 µM (active)
same,EC50,[7],12.1 µM (active)
same,AC50,[8],> 20 µM (inactive)
same,IC50,Large T antigen,14.6 µM (active)
Cn1c(NCc2ccccc2Cl)nc2ccccc21,IC50,[9],> 67.6 µM (inactive)
same,IC50,HEK293,> 67.6 µM (inactive)
O=C(c1cc(-c2ccccc2Cl)on1)N1CCN(C(=O)c2ccco2)CC1,AC50,Cytochrome P450 1A2,25.1 µM (inconclusive)
same,AC50,Cytochrome P450 3A4,inconclusive
same,AC50,Cytochrome P450 2C9,inconclusive
same,AC50,Cytochrome P450 2C19,25.1 µM (inconclusive)
COc1ccccc1C1SCCN1S(=O)(=O)c1cccc(C(F)(F)F)c1 (stereo unspecified),IC50,[4],> 100 µM (not active)
same,IC50,[5],> 100 µM (inactive)
CC(C)NC(=O)N1CCC2(CC1)CCN(C(=O)c1cc(C(F)(F)F)cc(C(F)(F)F)c1)CC2,AC50,Cytochrome P450 3A4,inconclusive
same,AC50,Cytochrome P450 2C9,inconclusive
Cc1c2c(nc3c(C(=O)NC4CCCC4)cnn13)CCCC2,AC50,Cytochrome P450 3A4,inconclusive
same,AC50,Cytochrome P450 2C19,39.8 µM (inconclusive)
CS(=O)(=O)N1N=C(c2ccccc2)CC1c1ccc2c(c1)OCO2 (stereo unspecified),IC50,[10],1.42 µM (active)
COc1cc(/C=C/C(=O)OCC(=O)NC(=O)NC2CCCCC2)ccc1OC(F)F,IC50,[11],> 100 µM (inactive)
COc1ccc(-c2cc3nc(C)cc(C)n3n2)cc1,IC50,[9],> 67.5 µM (inactive)
same,IC50,HEK293,> 67.5 µM (inactive)
Cc1ccc(C(=C2C3C=CC2C2C(=O)NC(=O)C32)c2ccc(C)cc2)cc1 (stereo unspecified),IC50,Beta-galactosidase,> 66.6 µM (inactive)
same,IC50,[12],> 66.6 µM (inactive)
COc1ccccc1C1CN(c2ccccc2)N=C1c1cccs1 (stereo unspecified),IC50,[11],> 100 µM (inactive)
COC(=O)C1=C(C)N(Cc2ccccc2)C(NCc2ccccc2)=N[C@H]1c1cccc(C(F)(F)F)c1,AC50,[6],3.27 µM (active)
same,EC50,[7],13.7 µM (active)
same,IC50,[13],> 20 µM (inactive)
same,AC50,INS1,8.05 µM (active)
CC1=C(/C=C/C(C)=N\NC(=O)c2ccncc2)C(C)(C)CCC1,CC50,[14],> 40 µM (active)
same,IC50,Beta-galactosidase,> 66.6 µM (inactive)
same,IC50,cells,0.61 µM (active)
same,IC50,[12],> 66.6 µM (inactive)

# — ChEMBL document CHEMBL1201862, “PubChem BioAssay data set” (2004)
